These results are taken from ChEMBL document CHEMBL4304766, “DMSO-Perturbing Assay for Identifying Promiscuous Enzyme Inhibitors” (ACS Med Chem Lett, 2019).

Assay [1] has as its target T1, Beta-lactamase (Enterobacter cloacae, UniProt P05364). The assay is described as follows: Inhibition of Enterobacter cloacae beta-lactamase incubated for 10 mins followed by nitrocefin substrate challenge and measured for 5 mins by spectrophotometric analysis.
Assay [2] concerns the target T2, Chymotrypsinogen A (Bos taurus, UniProt P00766). The assay is described as follows: (§1) Inhibition of alpha-chymotrypsin in bovine pancreas using SPpNA as substrate pretreated with enzyme for 30 mins followed by substrate addition and measured for 12 mins by spectrophotometric analysis.
Assay [3] has as its target T2, Chymotrypsinogen A. As to the kind of experiment: Inhibition of alpha-chymotrypsin in bovine pancreas using SPpNA as substrate pretreated with enzyme for 30 mins followed by substrate addition and measured for 12 mins in presence of Triton X-100 by spectrophotometric analysis.
Assay [4] has as its target Chymotrypsinogen A (Bos taurus) (UniProt P00766). The assay is described as follows: Inhibition of bovine pancreas alpha-chymotrypsin at concentration of 6 uM using SPpNA as substrate treated with enzyme for 30 mins following enzyme incubation with 0.7 to 2.1 M DMSO for 5 mins followed by substrate addition and measured for 12 mins by DMSO-perturbation assay.
In assay [5] the test system is Bacillus cereus. The assay is described as follows: Inhibition of Bacillus cereus 569/H9 beta-lactamase incubated for 10 mins followed by nitrocefin substrate challenge and measured for 5 mins by spectrophotometric analysis.
Assay [6] addresses Chymotrypsinogen A (Bos taurus) (UniProt P00766). The description is as §1.
The subject of assay [7] is Bacillus cereus. The assay is described as follows: Inhibition of Bacillus cereus 569/H9 beta-lactamase treated with enzyme for 10 mins following enzyme incubation with 0.7 to 2.1 M DMSO for 5 mins followed by nitrocefin substrate challenge and measured for 5 mins by DMSO-perturbation assay.
Assay [8] deals with T1, Beta-lactamase. As to the kind of experiment: Inhibition of Enterobacter cloacae beta-lactamase incubated for 10 mins followed by nitrocefin substrate challenge and measured for 5 mins in presence of Triton X-100 by spectrophotometric analysis.
For assay [9], the target named is Chymotrypsinogen A (Bos taurus) (UniProt P00766). As to the kind of experiment: Inhibition of alpha-chymotrypsin in bovine pancreas at 300 uM using SPpNA as substrate pretreated with enzyme for 30 mins followed by substrate addition and measured for 12 mins by spectrophotometric analysis relative to control.
Assay [10] addresses Beta-lactamase (Enterobacter cloacae) (UniProt P05364). The assay is described as follows: (§2) Inhibition of Enterobacter cloacae beta-lactamase incubated for 10 mins followed by nitrocefin substrate challenge and measured for 5 mins in presence of 1 mM DTT by spectrophotometric analysis.
The target of assay [11] is Chymotrypsinogen A (Bos taurus) (UniProt P00766). The assay is described as follows: Inhibition of bovine pancreas alpha-chymotrypsin at concentration of 6 nM using SAAPPpNA as substrate treated with enzyme for 30 mins following enzyme incubation with 0.7 to 2.1 M DMSO for 5 mins followed by substrate addition and measured for 12 mins by DMSO-perturbation assay.
A short description of assay [12]: Drug metabolism in DMSO-d6/potassium phosphate buffer assessed as drug recovery with small amount of metabolite formation by 1H-NMR analysis.
Assay [13] has as its target T1, Beta-lactamase. Described as §2.
The target of assay [14] is Beta-lactamase (Enterobacter cloacae) (UniProt P05364). The assay is described as follows: Inhibition of Enterobacter cloacae beta-lactamase at 200 uM incubated for 10 mins followed by nitrocefin substrate challenge and measured for 5 mins in presence of 1 mM DTT by spectrophotometric analysis relative to control.
Assay [15] has the same target. As to the kind of experiment: Inhibition of Enterobacter cloacae beta-lactamase at 500 uM incubated for 10 mins followed by nitrocefin substrate challenge and measured for 5 mins by spectrophotometric analysis relative to control.

Each structure is given as a SMILES string. Calls of active or inactive are those of the source. The rule behind the calls is not given here.

T1 sequence (P05364 whole entry): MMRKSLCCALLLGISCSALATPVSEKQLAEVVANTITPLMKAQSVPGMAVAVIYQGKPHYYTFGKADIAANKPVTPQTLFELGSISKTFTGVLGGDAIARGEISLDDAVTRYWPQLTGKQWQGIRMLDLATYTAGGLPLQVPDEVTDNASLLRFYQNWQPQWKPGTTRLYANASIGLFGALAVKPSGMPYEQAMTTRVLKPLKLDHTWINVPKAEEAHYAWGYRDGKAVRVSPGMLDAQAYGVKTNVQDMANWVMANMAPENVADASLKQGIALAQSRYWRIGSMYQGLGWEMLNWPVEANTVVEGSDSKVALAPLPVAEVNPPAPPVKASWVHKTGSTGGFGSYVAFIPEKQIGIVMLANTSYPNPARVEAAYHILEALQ
Beta-lactamase (Enterobacter cloacae), sequence (P05364 21-381 limits assumed): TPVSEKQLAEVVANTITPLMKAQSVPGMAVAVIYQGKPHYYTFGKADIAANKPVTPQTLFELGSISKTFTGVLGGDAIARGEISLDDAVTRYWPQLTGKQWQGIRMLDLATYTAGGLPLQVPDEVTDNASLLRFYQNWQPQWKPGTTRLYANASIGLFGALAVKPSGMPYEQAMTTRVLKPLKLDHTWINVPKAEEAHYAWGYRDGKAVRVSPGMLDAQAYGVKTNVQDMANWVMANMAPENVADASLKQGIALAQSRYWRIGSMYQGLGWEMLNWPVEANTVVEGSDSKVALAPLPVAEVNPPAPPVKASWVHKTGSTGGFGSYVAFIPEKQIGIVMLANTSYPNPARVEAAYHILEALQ

Turning to `O=c1cc(-c2ccc(O)c(O)c2)oc2ccccc12`, the IC50 (as a rule, the concentration that gives 50% inhibition) in [1] was “Nd(Insoluble)”; in [2] (read-out: IC50) it was 226 µM; in [3] it was 270 µM.

Consider `CC(C)C[C@@H](N)C(=O)N[C@@H](Cc1ccccc1)C(=O)NCc1ccc(F)cc1`, for which the inhibition (in general, how much of the control response was suppressed) in assay [4] was “Active”.

Regarding `CC1(C)[C@@H](O[C@H]2O[C@H](C(=O)O)[C@@H](O)[C@H](O)[C@H]2O[C@@H]2O[C@H](C(=O)O)[C@@H](O)[C@H](O)[C@H]2O)CC[C@]2(C)[C@H]3C(=O)C=C4[C@@H]5C[C@@](C)(C(=O)O)CC[C@]5(C)CC[C@@]4(C)[C@]3(C)CC[C@@H]12`, the inhibition entry in [5] is “inactive”.

For `CCCCCCCCCCCCCCCC(=O)OC[C@H](O)[C@H]1OC(=O)C(O)=C1O`, the inhibition result in assay [6] and in [5] was “inactive” throughout.

With `COc1ccc2c(c1)c(CC(=O)O)c(C)n2C(=O)c1ccc(Cl)cc1`, the inhibition result in assay [6] and in [5] was “inactive” in each case.

As to `O=C(O)[C@H]1/C(=C/CO)O[C@@H]2CC(=O)N21`, the inhibition result in [7] was “Active”.

For `O=C(O)[C@H]1O[C@@H](Oc2cc3oc(-c4ccccc4)cc(=O)c3c(O)c2O)[C@H](O)[C@@H](O)[C@@H]1O`, in assay [5], the inhibition entry was “inactive”.

`O=C(O)c1cc(=O)c2c(OCC(O)COc3cccc4oc(C(=O)O)cc(=O)c34)cccc2o1`: the inhibition result in [6] and in [5] was “inactive” each time.

As for `O=C(O[C@@H]1Cc2c(O)cc(O)cc2O[C@@H]1c1cc(O)c(O)c(O)c1)c1cc(O)c(O)c(O)c1`, the inhibition result in assay [5] was “inactive”.

As to `Oc1cc(O)c2c(c1)O[C@H](c1ccc(O)c(O)c1)[C@H](O)C2`, the inhibition result in assay [5] was “inactive”.

On to `CC1(C)S[C@@H]2[C@H](NC(=O)Cc3ccccc3)C(=O)N2[C@H]1C(=O)O` [PENICILLIN G SODIUM], for which the IC50 in assay [1] (read-out: IC50) was determined as 7.2 µM; in assay [8], 3.6 µM.

On to `O=C(CCc1ccc(O)cc1)c1c(O)cc(O)cc1O` [PHLORETIN], for which the IC50 in [1] (read-out: IC50) is 496 µM; in assay [2] (read-out: IC50), more than 300 µM. Also, the inhibition in [9] was 9.9%. In addition, the inhibition result in [10] is “Active”.

Regarding `O=c1c(O)c(-c2ccc(O)c(O)c2)oc2cc(O)cc(O)c12` [QUERCETIN], the IC50 in assay [1] (read-out: IC50) is 85 µM; in [8], more than 500 µM; in [13], 224 µM. The inhibition entry in assay [4] and in assay [11] was “Active” each time. Further, in [12], the Drug metabolism result is recorded as “Metabolite detected”.

In the case of `CC(=O)c1c(O)c(C)c(O)c(Cc2c(O)c3c(c(C(=O)/C=C/c4ccccc4)c2O)OC(C)(C)C=C3)c1O` [ROTTLERIN], the IC50 in assay [1] (read-out: IC50) is 96 µM; in assay [8], 142 µM; in assay [2] it was “Nd(Insoluble)”. Moreover, the Drug metabolism entry in [12] is listed as “Metabolite detected”. In assay [14], the inhibition was less than 50%.

As to `C[C@@H]1O[C@@H](OC[C@H]2O[C@@H](Oc3c(-c4ccc(O)c(O)c4)oc4cc(O)cc(O)c4c3=O)[C@H](O)[C@@H](O)[C@@H]2O)[C@H](O)[C@H](O)[C@H]1O` [RUTIN], the IC50 was more than 500 µM in assay [1] (read-out: IC50), 296 µM in assay [2] (read-out: IC50) and 281 µM in assay [3]. In addition, the inhibition in [15] was 15%. For the same molecule, the inhibition entry in assay [4] was “Active”.
